Assay results: patent US5210193A, “Piperazine derivatives” (American Cyanamid Company, priority 1990, dated 1993)
Values after ≈ are worked out from the molar mass of the structure shown.

Legend:
Assay in all cases: in vitro antibacterial MIC, agar plate dilution
Type in all cases: cell-based
[1] = tested on: Proteus rettgeri CMC 84-41; conditions: Providencia rettgeri, CMC8441, 18 h, 35° C., read-out: MIC
Protocol: (§1) The in vitro antimicrobial spectrum of the compounds of ths invention were determined by the agar plate dilution method with Mueller-Hinton agar and an inoculum of each test organism of approximately 10^4 colony forming units delivered by the Steers replicating device. The minimal inhibitory concentration (MIC) in mcg/ml is defined as the lowest concentration of test compound that inhibited visible growth after 18 hours incubation at 35° C. Results are given in Table I, with the test compounds identified by the number of their hereinafter described examples.

Escherichia coli LL 311 = conditions: Escherichia coli, LL311, 18 h, 35° C., read-out: MIC
Protocol: as §1

[2] = tested on: Staphylococcus aureus Smith; conditions: Staphylococcus aureus, 18 h, 35° C., read-out: MIC
Protocol: as §1

[3] = tested on: Escherichia coli ATCC 25922; conditions: Escherichia coli, ATCC25922, 18 h, 35° C., read-out: MIC
Protocol: as §1

[4] = tested on: Pseudomonas aeruginosa VGH 84-4; conditions: Pseudomonas aeruginosa, VGH844, 18 h, 35° C., read-out: MIC
Protocol: as §1

[5] = tested on: Streptococcus faecalis UCI 85-19; conditions: Enterococcus faecalis, UCI8519, 18 h, 35° C., read-out: MIC
Protocol: as §1

[6] = tested on: Escherichia coli CMC 84-11; conditions: Escherichia coli, CMC8411, 18 h, 35° C., read-out: MIC
Protocol: as §1

[7] = tested on: Staphylococcus aureus VGH 84-45; conditions: Staphylococcus aureus, VGH8445, 18 h, 35° C., read-out: MIC
Protocol: as §1

[8] = tested on: Streptococcus faecalis VGH 84-65; conditions: Enterococcus faecalis, VGH8465, 18 h, 35° C., read-out: MIC
Protocol: as §1

[9] = tested on: Serratia marcescens VGH 84-30; conditions: Serratia marcescens, VGH8430, 18 h, 35° C., read-out: MIC
Protocol: as §1

[10] = tested on: Pseudomonas aeruginosa LL-1244; conditions: Pseudomonas aeruginosa, LL1244, 18 h, 35° C., read-out: MIC
Protocol: as §1

[11] = tested on: Staphylococcus aureus ATTC 29213; conditions: Staphylococcus aureus, ATTC29213, 18 h, 35° C., read-out: MIC
Protocol: as §1

[12] = tested on: Morganella morganii CMC 84-37; conditions: Morganella morganii, CMC8437, 18 h, 35° C., read-out: MIC
Protocol: as §1

[13] = tested on: Serratia marcescens K 84-18; conditions: Serratia marcescens, K8418, 18 h, 35° C., read-out: MIC
Protocol: as §1

Row | MIC [1] [µg/mL] | MIC (Escherichia coli LL 311) [µg/mL] | MIC [2] [µg/mL] | MIC [3] [µg/mL] | MIC [4] [µg/mL] | MIC [5] [µg/mL] | MIC [6] [µg/mL] | MIC [7] [µg/mL] | MIC [8] [µg/mL] | MIC [9] [µg/mL] | MIC [10] [µg/mL] | MIC [11] [µg/mL] | MIC [12] [µg/mL] | MIC [13] [µg/mL] | SMILES
1 | 2 (≈ 5.22 µM) | 0.5 (≈ 1.3 µM) | 0.25 (≈ 0.652 µM) | 0.25 (≈ 0.652 µM) | 8 (≈ 20.9 µM) | 8 (≈ 20.9 µM) | 0.25 (≈ 0.652 µM) | 0.25 (≈ 0.652 µM) | 8 (≈ 20.9 µM) | 16 (≈ 41.7 µM) | 32 (≈ 83.5 µM) | 8 (≈ 20.9 µM) | 1 (≈ 2.61 µM) | 2 (≈ 5.22 µM) | CCn1cc(C(=O)O)c(=O)c2cc(F)c(N3CCN(C)C(CF)C3)c(F)c21 (racemic) [Example 113, Racemic 1-Ethyl-6,8-difluoro-7-[3-(fluoromethyl)-4-methyl-1-piperazinyl]-1,4-dihydro-4-oxo-3-quinolinecarboxylic acid]
2 | 0.5 (≈ 1.21 µM) | 0.12 (≈ 0.29 µM) | 0.12 (≈ 0.29 µM) | 0.06 (≈ 0.145 µM) | 4 (≈ 9.65 µM) | 2 (≈ 4.83 µM) | 0.06 (≈ 0.145 µM) | 0.12 (≈ 0.29 µM) | 2 (≈ 4.83 µM) | 8 (≈ 19.3 µM) | 8 (≈ 19.3 µM) | 2 (≈ 4.83 µM) | 0.25 (≈ 0.603 µM) | 0.5 (≈ 1.21 µM) | CCn1cc(C(=O)O)c(=O)c2cc(F)c(N3CCNC(c4ccccn4)C3)c(F)c21 (centres unmarked) [Example 116]
3 | 0.12 (≈ 0.32 µM) | 0.03 (≈ 0.0799 µM) | 0.12 (≈ 0.32 µM) | 0.25 (≈ 0.666 µM) | 2 (≈ 5.33 µM) | 2 (≈ 5.33 µM) | 0.03 (≈ 0.0799 µM) | 0.12 (≈ 0.32 µM) | 2 (≈ 5.33 µM) | 4 (≈ 10.7 µM) | 8 (≈ 21.3 µM) | 0.25 (≈ 0.666 µM) | 0.06 (≈ 0.16 µM) | 0.5 (≈ 1.33 µM) | COCC1CN(c2cc3c(cc2F)c(=O)c(C(=O)O)cn3C2CC2)CCN1 (centres unmarked) [Example 81, 1-Cyclopropyl-6-fluoro-1,4-dihydro-7-[3-(methoxymethyl)-1-pioerazinyl]-4-oxo-3-quinolinecarboxylic acid]
4 | 1 (≈ 2.14 µM) | 0.25 (≈ 0.535 µM) | 0.008 (≈ 0.0171 µM) | 0.25 (≈ 0.535 µM) | 8 (≈ 17.1 µM) | 2 (≈ 4.28 µM) | 0.12 (≈ 0.257 µM) | 0.03 (≈ 0.0642 µM) | 2 (≈ 4.28 µM) | 64 (≈ 137 µM) | 16 (≈ 34.2 µM) | 0.06 (≈ 0.128 µM) | 0.5 (≈ 1.07 µM) | 4 (≈ 8.56 µM) | O=C(O)c1cn(-c2ccc(F)cc2)c2cc(N3CCNC(c4ccsc4)C3)c(F)cc2c1=O (centres unmarked) [Example 100]
